According to the NIST ThermoML archive (doi:10.1016/j.jct.2006.08.009):

Assay: mn = molality of the nth substance listed, in mol/kg
Conditions: 350 kPa, Liquid; for apparent molar heat capacity: Extra sensitive DSC

O[C@H]1[C@H](O)[C@@H](O)[C@H](O)[C@@H](O)[C@H]1O [cis-1,2,3,5-trans-4,6-cyclohexanehexol] + O
Conditions | apparent molar heat capacity [J/K/mol] | mass density [kg/m3]
278.15 K, m1 = 0.02 | 255 | 1001.54
278.15 K, m1 = 0.05 | 253 | 1004.04
278.15 K, m1 = 0.0814 | 256.7 | –
278.15 K, m1 = 0.1 | 267.7 | –
278.15 K, m1 = 0.1028 | 257.3 | –
278.15 K, m1 = 0.248 | 263.1 | 1020.11
278.15 K, m1 = 0.3973 | 262.1 | 1031.74
278.15 K, m1 = 0.4994 | 269.8 | 1039.85
283.15 K, m1 = 0.02 | 287 | 1001.49
283.15 K, m1 = 0.05 | 285 | 1003.92
283.15 K, m1 = 0.0814 | 292.1 | –
283.15 K, m1 = 0.1 | 295.6 | –
283.15 K, m1 = 0.1028 | 284.4 | –
283.15 K, m1 = 0.248 | 290.5 | 1019.58
283.15 K, m1 = 0.3973 | 289 | 1030.95
283.15 K, m1 = 0.4994 | 295.3 | 1038.94
288.15 K, m1 = 0.02 | 312 | 1000.86
288.15 K, m1 = 0.05 | 312 | 1003.27
288.15 K, m1 = 0.0814 | 323 | –
288.15 K, m1 = 0.1 | 319.7 | –
288.15 K, m1 = 0.1028 | 306 | –
288.15 K, m1 = 0.248 | 312.7 | 1018.73
288.15 K, m1 = 0.3973 | 311.2 | 1029.97
288.15 K, m1 = 0.4994 | 316.4 | 1037.9
293.15 K, m1 = 0.02 | 332 | –
293.15 K, m1 = 0.05 | 332 | –
293.15 K, m1 = 0.0814 | 342.6 | –
293.15 K, m1 = 0.1 | 339 | –
293.15 K, m1 = 0.1028 | 326 | –
293.15 K, m1 = 0.248 | 331.5 | –
293.15 K, m1 = 0.3973 | 329.9 | –
293.15 K, m1 = 0.4994 | 334.1 | –
298.15 K, m1 = 0.02 | 347 | 998.75
298.15 K, m1 = 0.05 | 348 | 1001.13
298.15 K, m1 = 0.0814 | 358.6 | 1003.66
298.15 K, m1 = 0.1 | 354.4 | –
298.15 K, m1 = 0.1028 | 343.7 | –
298.15 K, m1 = 0.248 | 347.5 | 1016.29
298.15 K, m1 = 0.3973 | 345.6 | 1027.32
298.15 K, m1 = 0.4994 | 349.1 | 1035.14
303.15 K, m1 = 0.02 | 362 | –
303.15 K, m1 = 0.05 | 362.7 | –
303.15 K, m1 = 0.0814 | 371.2 | –
303.15 K, m1 = 0.1 | 367.4 | –
303.15 K, m1 = 0.1028 | 358.9 | –
303.15 K, m1 = 0.248 | 361.3 | –
303.15 K, m1 = 0.3973 | 359 | –
303.15 K, m1 = 0.4994 | 361.9 | –
308.15 K, m1 = 0.02 | 374 | 995.69
308.15 K, m1 = 0.05 | 374.4 | 998.05
308.15 K, m1 = 0.0814 | 381.2 | 1000.51
308.15 K, m1 = 0.1 | 378.5 | 1001.45
308.15 K, m1 = 0.1028 | 371.6 | 1001.99
308.15 K, m1 = 0.248 | 373.2 | 1012.97
308.15 K, m1 = 0.3973 | 370.4 | 1023.83
308.15 K, m1 = 0.4994 | 373 | 1031.55
313.15 K, m1 = 0.02 | 386 | –
313.15 K, m1 = 0.05 | 385.5 | –
313.15 K, m1 = 0.0814 | 390.4 | –
313.15 K, m1 = 0.1 | 388.5 | –
313.15 K, m1 = 0.1028 | 382.8 | –
313.15 K, m1 = 0.248 | 383.6 | –
313.15 K, m1 = 0.3973 | 380.5 | –
313.15 K, m1 = 0.4994 | 382.7 | –
318.15 K, m1 = 0.02 | 395 | 991.86
318.15 K, m1 = 0.05 | 394.7 | 994.19
318.15 K, m1 = 0.0814 | 398.6 | 996.61
318.15 K, m1 = 0.1 | 397.3 | 997.52
318.15 K, m1 = 0.1028 | 392.5 | 998.07
318.15 K, m1 = 0.248 | 392.7 | 1008.92
318.15 K, m1 = 0.3973 | 389.4 | 1019.64
318.15 K, m1 = 0.4994 | 391.3 | 1027.27
323.15 K, m1 = 0.02 | 403 | –
323.15 K, m1 = 0.05 | 402.6 | –
323.15 K, m1 = 0.0814 | 405.9 | –
323.15 K, m1 = 0.1 | 405 | –
323.15 K, m1 = 0.1028 | 401 | –
323.15 K, m1 = 0.248 | 400.7 | –
323.15 K, m1 = 0.3973 | 397.3 | –
323.15 K, m1 = 0.4994 | 398.9 | –
328.15 K, m1 = 0.02 | 410 | 987.32
328.15 K, m1 = 0.05 | 409.6 | 989.63
328.15 K, m1 = 0.0814 | 412.6 | 992.01
328.15 K, m1 = 0.1 | 411.7 | 992.93
328.15 K, m1 = 0.1028 | 408.3 | 993.47
328.15 K, m1 = 0.248 | 407.8 | 1004.2
328.15 K, m1 = 0.3973 | 404.3 | 1014.83
328.15 K, m1 = 0.4994 | 405.6 | 1022.36
333.15 K, m1 = 0.02 | 416 | –
333.15 K, m1 = 0.05 | 415.7 | –
333.15 K, m1 = 0.0814 | 418.7 | –
333.15 K, m1 = 0.1 | 417.8 | –
333.15 K, m1 = 0.1028 | 414.9 | –
333.15 K, m1 = 0.248 | 414.1 | –
333.15 K, m1 = 0.3973 | 410.5 | –
333.15 K, m1 = 0.4994 | 411.6 | –
338.15 K, m1 = 0.02 | 421 | 982.18
338.15 K, m1 = 0.05 | 421.5 | 984.47
338.15 K, m1 = 0.0814 | 424.1 | 986.82
338.15 K, m1 = 0.1 | 423.2 | 987.73
338.15 K, m1 = 0.1028 | 420.6 | 988.27
338.15 K, m1 = 0.248 | 419.6 | 998.91
338.15 K, m1 = 0.3973 | 416.1 | 1009.45
338.15 K, m1 = 0.4994 | 416.9 | 1016.94
343.15 K, m1 = 0.02 | 427 | –
343.15 K, m1 = 0.05 | 426.7 | –
343.15 K, m1 = 0.0814 | 429 | –
343.15 K, m1 = 0.1 | 427.9 | –
343.15 K, m1 = 0.1028 | 425.9 | –
343.15 K, m1 = 0.248 | 424.6 | –
343.15 K, m1 = 0.3973 | 421 | –
343.15 K, m1 = 0.4994 | 421.6 | –
348.15 K, m1 = 0.02 | 430.7 | 976.46
348.15 K, m1 = 0.05 | 431.2 | 978.72
348.15 K, m1 = 0.0814 | 433.3 | 981.07
348.15 K, m1 = 0.1 | 431.9 | 981.98
348.15 K, m1 = 0.1028 | 430.3 | 982.51
348.15 K, m1 = 0.248 | 428.9 | 993.1
348.15 K, m1 = 0.3973 | 425.2 | 1003.55
348.15 K, m1 = 0.4994 | 425.8 | 1010.99
353.15 K, m1 = 0.02 | 435.4 | –
353.15 K, m1 = 0.05 | 435.4 | –
353.15 K, m1 = 0.0814 | 437.2 | –
353.15 K, m1 = 0.1 | 435.3 | –
353.15 K, m1 = 0.1028 | 434.1 | –
353.15 K, m1 = 0.248 | 432.5 | –
353.15 K, m1 = 0.3973 | 428.9 | –
353.15 K, m1 = 0.4994 | 429.3 | –
358.15 K, m1 = 0.02 | 439.4 | 970.24
358.15 K, m1 = 0.05 | 439 | 972.5
358.15 K, m1 = 0.0814 | 440.6 | 974.84
358.15 K, m1 = 0.1 | 438.3 | 975.72
358.15 K, m1 = 0.1028 | 437.2 | 976.24
358.15 K, m1 = 0.248 | 435.7 | 986.78
358.15 K, m1 = 0.3973 | 432 | 997.2
358.15 K, m1 = 0.4994 | 432.4 | –
363.15 K, m1 = 0.02 | 442.2 | –
363.15 K, m1 = 0.05 | 441.7 | –
363.15 K, m1 = 0.0814 | 443.4 | –
363.15 K, m1 = 0.1 | 440.5 | –
363.15 K, m1 = 0.1028 | 439.4 | –
363.15 K, m1 = 0.248 | 438.2 | –
363.15 K, m1 = 0.3973 | 434.6 | –
363.15 K, m1 = 0.4994 | 434.8 | –
368.15 K, m1 = 0.02 | – | 963.51
368.15 K, m1 = 0.05 | – | 965.76
368.15 K, m1 = 0.0814 | – | 968.11
368.15 K, m1 = 0.1 | – | 969.08
368.15 K, m1 = 0.1028 | – | 969.48
368.15 K, m1 = 0.248 | – | 980
368.15 K, m1 = 0.3973 | – | 990.36
368.15 K, m1 = 0.4994 | – | 997.73
